Laboratory results: patent US4652575A, “2-(ethylene-thio methyl furanyl)amino thiazole derivatives having acid secretion inhibiting activity” (Medosan Industrie Biochimiche Riunite S.p.A., priority 1984, dated 1987)
Like-named read-outs stand apart in the source and are kept apart here.

Experiments:
[1] = biological target: T1, histamine H2 receptors (Cavia porcellus, UniProt P47747); test: Antagonistic activity to the histamine H2 receptors "in vitro" on insulated atrium auricolas of Guinea pig heart; conditions: guinea pig, 0.5 h; for inhibition at 10 µM: read-out: Antagonizing activity to histamine H2 receptors, compound 1·10^-5 M/L; for inhibition at 1 µM: read-out: Antagonizing activity to histamine H2 receptors, compound 1·10^-6 M/L; for inhibition at 0.1 µM: read-out: Antagonizing activity to histamine H2 receptors, compound 1·10^-7 M/L
T1 construct: tests on insulated atrium auricolas of Guinea pig heart; from tissue; host or cells: isolated guinea pig heart atrium
T1 sequence (P47747 whole entry): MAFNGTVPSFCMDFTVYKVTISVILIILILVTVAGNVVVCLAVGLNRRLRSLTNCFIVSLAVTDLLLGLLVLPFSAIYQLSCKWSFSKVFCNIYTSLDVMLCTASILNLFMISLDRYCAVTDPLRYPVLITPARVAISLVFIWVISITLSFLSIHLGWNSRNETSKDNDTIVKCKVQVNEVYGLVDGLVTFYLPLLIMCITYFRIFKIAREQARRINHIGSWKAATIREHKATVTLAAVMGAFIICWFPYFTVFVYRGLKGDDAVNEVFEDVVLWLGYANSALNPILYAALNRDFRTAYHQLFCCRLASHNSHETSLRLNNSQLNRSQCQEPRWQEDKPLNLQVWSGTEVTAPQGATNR
Description: (§1) The preparations were a solution of the substances in 2.5% citric acid for the "in vitro" test and 5% citric acid for the "in vivo" test respectively. Citric acid was diluted in normal physiologic saline at neutral pH.
This activity was evaluated "in vitro" by carrying out tests on insulated atrium auricolas of Guinea pig heart. […] Metering was carried out by placing the preparation into a vessel containing a Ringer-Locke solution wherein pure oxygen was bubbling, at a temperature of 37° C. A response of the organ "in vitro" was first established at cumulative histamine doses of 2.5.10^-7, 5.10^-7, 10^-6, 5.10^-6, 10^-5 M/L. After obtaining two constant lines with histamine at a time interval of one hour from one another, the substances under test were added to the bath and after a 30 minutes contact with the preparation, a new histamine response line in the presence of the substance under test was drawn. The activity was tested at various concentrations of the new compounds (10^-5, 10^-6, 10^-7 and in one case 10^-8 M/L).

[2] = system: gastric secretion; test: Activity on gastric secretion "in vivo" (volume and total acidity of gastric juice after pylorus tieing, Shay); set-up: species or system male Wistar rats; conditions: for Total acidity gastric juice secretion / Volume gastric juice secretion / change in vivo at 20 mg/kg: 20 mg/kg oral
Description: as §1
The ability of the compounds according to the present invention to inhibit the gastric secretion was studied "in vivo" both by evaluating the volume reduction of gastric juice, and by measuring the total acidity of same after administration of the substances under test according to the Takeda method (see the aforementioned literature).
To this end, tests have been made on male Wistar rats of an average weight of 200 g. The animals, 10 for each substance, were placed into individual cages provided with ground grating in order to avoid coprophagy, without food but with free access to water for 24 hours before test. […] Four hours later the animals were sacrificed and the gastric juice was collected, of which the volume expressed in ml and the total acidity expressed in mEq was measured. The gastric juice ([…] ) was titrated with 0.1N NaOH to pH 7 to determine the acid concentration. The total acidity was then calculated as the product of the total volume of gastric juice by the acid concentration.

[3] = Acute toxicity (DL50) in rat; conditions: in vivo, po
Description: The animals were kept under observation by checking mortality and possible pain signs for 15 days from start of test.

[4] = biological target: T1, histamine H2 receptors; conditions: Daly M. J., Br. J. Pharmac., 72, 49, 1982; cited from earlier work
[5] = system: gastric acid secretion; conditions: experimental tests on animals and humans; prior art; cited from earlier work

In the case of CNC(=C[N+](=O)[O-])NCCSCc1ccc(CN(C)C)o1 [Ranitidine, reference compound], the inhibition at 10 µM ([1]; histamine 1·10^-5 M/L) is reported as 90%, the inhibition at 10 µM ([1]; histamine 1·10^-6 M/L) is reported as 100% and the inhibition at 10 µM ([1]; histamine 2,5·10^-7 M/L) is reported as 100%. For the same compound, the inhibition at 10 µM ([1]; histamine 5·10^-6 M/L) was 95%, the inhibition at 10 µM ([1]; histamine 5·10^-7 M/L) was 100% and the inhibition at 1 µM ([1]; histamine 1·10^-5 M/L) was 36%. The inhibition at 1 µM ([1]; histamine 1·10^-6 M/L) was 97%, the inhibition at 1 µM ([1]; histamine 2,5·10^-7 M/L) was 100% and the inhibition at 1 µM ([1]; histamine 5·10^-6 M/L) was 67%. For the same compound, the inhibition at 1 µM ([1]; histamine 5·10^-7 M/L) was 100%, the inhibition at 0.1 µM ([1]; histamine 1·10^-5 M/L) was 2% and the inhibition at 0.1 µM ([1]; histamine 1·10^-6 M/L) was 45%. For the same compound, the inhibition at 0.1 µM ([1]; histamine 2,5·10^-7 M/L) was 85%, the inhibition at 0.1 µM ([1]; histamine 5·10^-6 M/L) was 25% and the inhibition at 0.1 µM ([1]; histamine 5·10^-7 M/L) was 70%. The “Total acidity gastric juice secretion” value ([2]; 6 hours before pilorus tieing) was 0,12 mEq/4 hours, the “Volume gastric juice secretion” value ([2]; 6 hours before pilorus tieing) was 4,8 ml/4 hours and the “Total acidity gastric juice secretion” value ([2]; 12 hours before pilorus tieing) was 0,16 mEq/4 hours. For the same compound, the “Volume gastric juice secretion” value ([2]; 12 hours before pilorus tieing) was 4,9 ml/4 hours, the “Total acidity gastric juice secretion” value ([2]; 24 hours before pilorus tieing) was 0,17 mEq/4 hours and the “Volume gastric juice secretion” value ([2]; 24 hours before pilorus tieing) was 5,3 ml/4 hours. The “Total acidity gastric juice secretion” value ([2]; 36 hours before pilorus tieing) was 0,16 mEq/4 hours, the “Volume gastric juice secretion” value ([2]; 36 hours before pilorus tieing) was 5,4 ml/4 hours and the change in vivo at 20 mg/kg ([2]; Rattus norvegicus, po, 6 hours before pilorus tieing, read-out: Total acidity gastric juice secretion, Variation %) was -29%. It also gave a change in vivo at 20 mg/kg ([2]; Rattus norvegicus, po, 6 hours before pilorus tieing, read-out: Volume gastric juice secretion, Variation %) of -9%, a change in vivo at 20 mg/kg ([2]; Rattus norvegicus, po, 12 hours before pilorus tieing, read-out: Total acidity gastric juice secretion, Variation %) of 6% and a change in vivo at 20 mg/kg ([2]; Rattus norvegicus, po, 12 hours before pilorus tieing, read-out: Volume gastric juice secretion, Variation %) of -4%. For the same compound, the change in vivo at 20 mg/kg ([2]; Rattus norvegicus, po, 24 hours before pilorus tieing, read-out: Total acidity gastric juice secretion, Variation %) was 0%, the change in vivo at 20 mg/kg ([2]; Rattus norvegicus, po, 24 hours before pilorus tieing, read-out: Volume gastric juice secretion, Variation %) was -5% and the change in vivo at 20 mg/kg ([2]; Rattus norvegicus, po, 36 hours before pilorus tieing, read-out: Total acidity gastric juice secretion, Variation %) was 0%. For the same compound, the change in vivo at 20 mg/kg ([2]; Rattus norvegicus, po, 36 hours before pilorus tieing, read-out: Volume gastric juice secretion, Variation %) was -3%, the ED50 ([2]; Rattus norvegicus, po, per os, 1 hour before pilorus tieing, read-out: DE50 in rat calculated on total acidity (mEq/4 hours)) was 5.2 mg/kg and the LD50 [3] was 2000 mg/kg. For the same compound, the LD50 at 360 h [3] was 1600 mg/kg, the “antagonism of histamine induced increase of contraction frequency of the insulated atrium (in words)” value [4] was “competitively antagonize” and the “reduction of gastric acid secretion (in words)” value [5] was “effective to reduce the gastric acid secretion”.
